Data on one compound can be found in publication PMC6470589, “Contribution of Molecular Structure to Self-Assembling and Biological Properties of Bifunctional Lipid-Like 4-(N-Alkylpyridinium)-1,4-Dihydropyridines” (Pharmaceutics, 2019).

Values joined by “and” are separate entries in the source; they are usually repeats but may differ in a detail not shown here. Equal values may be shown once. “Also recorded” adds a separate entry of the source.

Data set [1] concerns Bacillus subtilis subsp. spizizenii. Kind of data set: Toxicity screen, serial dilution-spot test.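 Also: last dilution that did not fully inhibit growth with colonies still present.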 Format: cell-based. As to conditions: gram positive; 24 h exposure in DI water, 28 °C; 0.0001 = no colonies at 0.001 mM. On the procedure:
(§1) An estimation of the toxicity of 4-(N-alkylpyridinium)-1,4-DHP derivatives 3, 6, 7, and 9–11 was performed using six prokaryotic (bacteria) and one eukaryotic (yeast) microorganism species according to the procedure elaborated by Suppi et al.. The microorganisms used in the study and their origin were: Bacillus subtilis subsp. spizizenii (ATCC® 6633™*, Microbiologics®, St Cloud, MN, USA), Escherichia coli (ATCC® 8739, Microbiologics®), Klebsiella pneumoniae (Latvian Microorganisms strain collection, LMKK, strain number 535, Riga, Latvia), Micrococcus luteus (LMKK, No. 25), Pseudomonas aeruginosa (NCTC 12924, Biosciences Ltd., Dublin, Ireland), Proteus mirabilis (LMKK, No 590), and Saccharomyces cerevisiae, CEN.PK2 strain [32].
(§2) Bacteria and yeast cultures were cultivated until their exponential growth phase (optical density max 1); then, 100 µL of cell suspension was taken, washed in deionised (DI) water, and added to serially diluted samples of corresponding 4-(N-alkylpyridinium)-1,4-DHPs in DI water. All 1,4-DHPs were tested in five serially diluted concentrations (10 mM, 1 mM, 0.1 mM, 0.01 mM, and 0.001 mM). Test organisms were exposed to 1,4-DHP derivatives in DI water on 96-well microplates (Corning, Corning, NY, USA) at 28 °C for 24 h without shaking in the dark. Then, a 5 µL sample was taken from each well and spotted on yeast extract, bactopeptone, dextrose broth (YPD) (yeast extract 1%, bactopeptone 2%, glucose 2% and agar 2%) plates to test the growth of yeasts and lysogeny broth (LB) (yeast extract 0.5%, bactopeptone 1%, NaCl 0.5% and agar 2%) to test the growth for bacteria. Plates were left in 30 °C for 24 h, and assessed for microbial growth.
(§3) If there were no colonies after incubation with 1,4-DHPs in the last concentration of (0.001 mM), then their boundary concentration was set to 0.0001 mM or 0.1 µM.

A further data set relates to Escherichia coli. The data set is described as follows: Toxicity screen, serial dilution-spot test.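 Also: last dilution that did not fully inhibit growth with colonies still present.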 In kind it is cell-based. The settings on record: gram negative; 24 h exposure in DI water, 28 °C; 0.0001 = no colonies at 0.001 mM. The protocol:
as §1, §2, §3

For another data set, the system named is Klebsiella pneumoniae. Kind of data set: Toxicity screen, serial dilution-spot test.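 Also: last dilution that did not fully inhibit growth with colonies still present.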 In kind it is cell-based. The settings on record: gram negative; 24 h exposure in DI water, 28 °C; 0.0001 = no colonies at 0.001 mM. The protocol: as §1, §2, §3
A further data set has as its system Micrococcus luteus. The data set is described as follows: Toxicity screen, serial dilution-spot test.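 Also: last dilution that did not fully inhibit growth with colonies still present.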 In kind it is cell-based. As to conditions: gram positive; 24 h exposure in DI water, 28 °C; 0.0001 = no colonies at 0.001 mM. The protocol:
as §1, §2, §3

For the next data set, the system named is Proteus mirabilis. Kind of data set: Toxicity screen, serial dilution-spot test.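 Also: last dilution that did not fully inhibit growth with colonies still present.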 In kind it is cell-based. As to conditions: gram negative; 24 h exposure in DI water, 28 °C; 0.0001 = no colonies at 0.001 mM. The protocol:
as §1, §2, §3

The subject of a further data set is Pseudomonas aeruginosa. The data set is described as follows: Toxicity screen, serial dilution-spot test.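 Also: last dilution that did not fully inhibit growth with colonies still present.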 Format: cell-based. As to conditions: gram negative; 24 h exposure in DI water, 28 °C; 0.0001 = no colonies at 0.001 mM. The protocol:
as §1, §2, §3

Data set [2] deals with Saccharomyces cerevisiae, CEN.PK2 strain. Kind of data set: Toxicity screen, serial dilution-spot test.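 Also: last dilution that did not fully inhibit growth with colonies still present.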 Format: cell-based. The settings on record: yeast; 24 h exposure in DI water, 28 °C; 0.0001 = no colonies at 0.001 mM. The protocol:
as §1, §2, §3

Data set [3] deals with six prokaryotic (bacteria) and one eukaryotic (yeast) microorganism species. The data set is described as follows: Toxicity screen, whole panel of microorganisms. Format: cell-based. As to conditions: concentrations tested 10 to 0.001 mM. The protocol:
as §1, §2, §3

Data set [4] is described as follows: Self-assembling properties by dynamic light scattering (DLS). Format: physicochemical. The protocol: Samples of compounds for dynamic light scattering (DLS) studies were prepared by thin-film hydration method in an aqueous solution at a concentration of 0.5 mg/mL for compounds 1–7, 0.25 mg/mL for compounds 8–10, and 0.1 mg/mL for compound 11. A corresponding amount of compounds was weighted in a round-bottom flask and dissolved in chloroform; then, the organic solvent was removed in vacuo, and the residue was dried in high vacuo for 1 h. An appropriate amount of deionised water was added to each flask for the preparation of stock solutions with the above-mentioned concentrations. Samples were prepared by sonication using a bath-type sonicator (Cole Parmer Ultrasonic Cleaner 8891CPX (Vernon Hills, IL, USA)). Samples were sonicated for 60 min at 50 °C.
The DLS measurements of the nanoparticles in an aqueous solution were carried out on a Zetasizer Nano ZSP (Malvern Panalytical Ltd., Malvern, UK) instrument with Malvern Instruments Ltd. Software 7.12, using the following specifications—medium: water; refractive index: 1.33; viscosity: 0.8872 cP; temperature: 25 °C; dielectric constant: 78.5; nanoparticles: liposomes; refractive index of materials: 1.60; detection angle: 173°; wavelength: 633 nm. Data were analysed using the multimodal number distribution software that was included with the instrument. The measurements were performed in triplicate in order to check their reproducibility.

A short description of data set [5]: Determination of critical aggregation concentration (CAC) by DLS. The settings on record: aqueous media. In kind it is physicochemical. On the procedure:
The critical aggregation concentrations (CAC) of 4-(N-alkylpyridinium)-1,4-DHP derivatives were determined in aqueous media using a Zetasizer Nano S90 (Malvern Panalytical Ltd., Malvern, UK) instrument with Malvern Instruments Ltd. Software according to procedure described by Topel et al. and modified by our group. Briefly, as stock solutions of tested compounds were used, samples were prepared for self-assembling experiments. All of the subsequent samples were prepared starting from the concentrated stock solution, which was subjected to a serial two-fold dilution each time with water. The intensity values of scattered light (kcps) as a function of concentration of amphiphiles were analysed. The scattering intensities detected for amphiphile concentrations below CAC have an approximately constant value corresponding to water. The intensity starts to show a linear increase with concentration at the CAC, since the amount of nanoparticles increases in the solution. The intersection of the best-fit lines drawn through the data points is the preliminary CAC value of the compounds.

On the set-up of data set [6]: method as in PMID 9713710. As to conditions: cited from earlier work.
For a further data set, the system named is human erythrocytes. Details: method as in PMID 9713710. As to conditions: cited from earlier work.

In the case of `CCCCCCCCCCCCCCCC[n+]1cccc(C2C(C(=O)OCC)=C(C)NC(C)=C2C(=O)OCC)c1` [Compound 10], the “Boundary concentration, B. subtilis” value in data set [1] was 0.0001 mM. The “Boundary concentration, E. coli” value in the data set on Escherichia coli is on record as 0.01 mM. Besides, the “Boundary concentration, K. pneumoniae” value in the data set on Klebsiella pneumoniae came to 0.01 mM. Moreover, in the data set on Micrococcus luteus, the “Boundary concentration, M. luteus” value was found to be 0.001 mM. Moreover, the “Boundary concentration, P. mirabilis” value in the data set on Proteus mirabilis turned out to be 0.01 mM. For the same compound, the “Boundary concentration, P. aeruginosa” value with Pseudomonas aeruginosa turned out to be 10 mM. In data set [2], the “Boundary concentration, S. cerevisiae” value worked out at 0.0001 mM. Besides, in [3], the “Effect on survival of microorganisms” value is “toxic at various degrees”. Further, the “PDI ± SD, 1 Set” value in data set [4] (freshly prepared samples) is 0.10 and 0.10 ± 0.06. In addition, the “Zeta-Pot ± SD” value in data set [4] (freshly prepared samples in water, 0.5 mg/mL (1–7), 0.25 mg/mL (8–10), 0.1 mg/mL (11)) is “+49.70 ± 7.94 mV”. In data set [4] (two weeks after the first set, samples stored at r.t.), the “PDI ± SD, 2 Set” value is 0.25 and 0.25 ± 0.05. Moreover, the Stability of nanoparticles result in [4] (two weeks of storage at r.t., DLS) is on record as “stable after two weeks of storage; also recorded: confirmed the stability of nanoparticles”. In data set [5], this compound had a CAC of 28.2 µM. Further, in data set [6], the “Release of calcein from DPPC liposomes” value is “remarkable release of calcein from DPPC liposomes”. The “Hemolysis of human erythrocytes” value in the data set with human erythrocytes was “induced the hemolysis of human erythrocytes”.
